Laboratory results: patent US11541056B2, “3-hydroxy-N-(3-(7H-pyrrolo[2,3-d]pyrimidin-4-yl)phenyl)pyrrolidine-1-carboxamide derivatives” (NOVARTIS AG, priority 2018, dated 2023)

Experiments:
[1] = target: T1, BTK-GFP (Homo sapiens, UniProt Q06187+Q96SW2); assay: BTK-GFP protein abundance flow cytometry assay in HEK293A cells; assay type: cell-based; settings: 24 h; for BTK deg Amax %: % protein remaining at concentration of maximum degradation; for DC50: concentration at which 50% maximal degradation was observed
T1 construct: the BTK open reading frame (ORF) was first shuttled from a pcDNA-DEST40-BTK vector (Invitrogen library ID INV_20090504v1); expressed in transfected cells; host or cells: HEK293A cells (Invitrogen R70507), lentiviral transduction with pLenti6-BTK-GFP-Ires-RFP, blasticidin-selected
Procedure: Compounds of the invention were tested in the following cellular assays. The terms in Table 1 are defined as follows: DC50 refers to the concentration at which 50% maximal degradation was observed; deg Amax is the extent of degradation and the value refers to the % protein remaining at the concentration at which maximum degradation is seen; Prol GI50 refers to the proliferation data and defines the concentration at which 50% growth inhibition was observed compared to the vehicle treated control at the end of the incubation time. TMD8 cells are BTK dependent and OCI-LY3 cells are BTK independent.
(§1) BTK-GFP and IKZF3-GFP Protein Abundance Flow Cytometry Assay in HEK293A Cells:
(§2) Degradation of BTK or IKZF3 was measured in HEK293A cells (Invitrogen R70507) expressing either BTK-GFP and RFP or IKZF3-GFP and RFP from a stably integrated bicistronic BTK-GFP-iresRFP or IKZF3-GFP-iresRFP construct, respectively. Reduction of the GFP signal measured by flow cytometry served as readout for BTK or IKZF3 degradation after degrader treatment.
(§3) Stable HEK293A-BTK-GFP-iresRFP cells were maintained in complete growth medium (DMEM high Glucose+10% FCS+1% L-Glutamine+1% NEAA+1% NaPyr.) with passaging performed twice per week. On Day 0, HEK293A-BTK-GFP-iresRFP or HEK293A-IKZF3-GFP-iresRFP and HEK293A-iresRFP cells were seeded at 10,000 cells/well in a 96-well microtiter plate in 260 μl complete medium. On Day 1, cells were treated in duplicate with 10-point 1:3 dilution series of compound using the HP D300 Digital Dispenser (Tecan). DMSO concentrations were normalized across the plate to 0.1%. On Day 2, after 24 h of incubation at 37° C., treatment media was discarded, cells rinsed with 100 ul/well PBS and then detached using 40 ul trypsin/well for 5 min. Trypsin was neutralized with 100 ul/well PBS+20% FCS). Flow cytometry was performed on the samples using the BD FACS CANTO II (Becton Dickinson). Cell identification was then performed using forward (FSC) vs. side scatter (SSC) plots. Single cell discrimination is performed using SSC-Width (SSC-W) vs. SSC-Height (SSC-H) plots. Median GFP values for 5,000 single cells are used to determine BTK levels. Median GFP values from HEK293A-iresRFP are used as a background signal and thus defining 0% BTK signal. Median GFP values from DMSO treated HEK293A-BTK-GFP-iresRFP or HEK293A-IKZF3-GFP-iresRFP are used to define 100% BTK signal for subsequent DC50 curves (concentration at 50% BTK degradation). GFP and RFP are read in the channels called FITC and PE, respectively.
(§4) Concentration response curves plotting relative reduction of the GFP signal (measured by flow cytometry) versus 10 compound concentrations (starting concentration 10 μM, 3 fold dilution steps) of the compounds allowed generation of DC50 values.

[2] = target: T2, IKZF3-GFP (Homo sapiens, UniProt Q9UKT9); assay: IKZF3-GFP protein abundance flow cytometry assay in HEK293A cells; assay type: cell-based; settings: 24 h, Table 1; for IKZF3 deg Amax %: % protein remaining at maximum degradation
T2 construct: gateway cloning of IKZF3 from a pENTR221-IKZF3(STOP-Leu) construct into the previously described pLenti6-DEST-GFP-Ires-RFP vector; expressed in transfected cells; host or cells: HEK293A cells (Invitrogen R70507), lentiviral transduction with pLenti6-IKZF3-GFP-Ires-RFP, blasticidin-selected
Procedure: Compounds of the invention were tested in the following cellular assays. […] TMD8 cells are BTK dependent and OCI-LY3 cells are BTK independent.
as §1, §2, §3, §4
Data is shown in Table 2, in which, DC50 refers to the concentration at which 50% maximal degradation was observed; deg Amax is the extent of degradation and the value refers to the % protein remaining at the concentration at which maximum degradation is seen.

T1 sequence (Q06187 whole entry): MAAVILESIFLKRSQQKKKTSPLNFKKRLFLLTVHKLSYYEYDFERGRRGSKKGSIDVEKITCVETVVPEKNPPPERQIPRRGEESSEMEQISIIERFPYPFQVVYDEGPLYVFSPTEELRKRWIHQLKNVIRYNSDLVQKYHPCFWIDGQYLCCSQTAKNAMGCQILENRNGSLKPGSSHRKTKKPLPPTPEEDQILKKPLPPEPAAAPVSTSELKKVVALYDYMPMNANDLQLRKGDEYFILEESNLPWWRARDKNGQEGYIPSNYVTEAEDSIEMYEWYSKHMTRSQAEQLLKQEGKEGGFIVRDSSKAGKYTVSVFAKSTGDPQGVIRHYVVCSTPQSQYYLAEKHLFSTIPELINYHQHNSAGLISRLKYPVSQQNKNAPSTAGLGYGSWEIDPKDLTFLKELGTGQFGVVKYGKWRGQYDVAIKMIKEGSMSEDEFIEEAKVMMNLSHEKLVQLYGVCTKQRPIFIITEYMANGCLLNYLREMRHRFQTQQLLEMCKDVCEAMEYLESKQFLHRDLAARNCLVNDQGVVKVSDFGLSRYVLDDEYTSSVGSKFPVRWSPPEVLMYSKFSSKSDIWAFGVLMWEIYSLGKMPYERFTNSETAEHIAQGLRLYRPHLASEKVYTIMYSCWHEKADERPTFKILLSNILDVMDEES
T1 sequence (Q96SW2 whole entry): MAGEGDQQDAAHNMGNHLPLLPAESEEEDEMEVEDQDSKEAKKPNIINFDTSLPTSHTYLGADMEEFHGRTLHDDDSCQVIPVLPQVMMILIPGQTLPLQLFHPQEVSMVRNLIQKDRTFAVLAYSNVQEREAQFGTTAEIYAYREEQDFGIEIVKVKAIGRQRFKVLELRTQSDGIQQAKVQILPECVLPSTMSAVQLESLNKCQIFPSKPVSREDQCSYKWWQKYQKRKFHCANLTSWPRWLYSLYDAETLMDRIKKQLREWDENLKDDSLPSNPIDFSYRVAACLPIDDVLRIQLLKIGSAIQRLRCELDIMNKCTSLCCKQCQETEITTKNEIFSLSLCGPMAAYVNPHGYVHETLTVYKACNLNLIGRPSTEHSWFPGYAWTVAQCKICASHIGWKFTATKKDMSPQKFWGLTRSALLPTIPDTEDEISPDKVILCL
T1 sequence (Q16531 whole entry partner): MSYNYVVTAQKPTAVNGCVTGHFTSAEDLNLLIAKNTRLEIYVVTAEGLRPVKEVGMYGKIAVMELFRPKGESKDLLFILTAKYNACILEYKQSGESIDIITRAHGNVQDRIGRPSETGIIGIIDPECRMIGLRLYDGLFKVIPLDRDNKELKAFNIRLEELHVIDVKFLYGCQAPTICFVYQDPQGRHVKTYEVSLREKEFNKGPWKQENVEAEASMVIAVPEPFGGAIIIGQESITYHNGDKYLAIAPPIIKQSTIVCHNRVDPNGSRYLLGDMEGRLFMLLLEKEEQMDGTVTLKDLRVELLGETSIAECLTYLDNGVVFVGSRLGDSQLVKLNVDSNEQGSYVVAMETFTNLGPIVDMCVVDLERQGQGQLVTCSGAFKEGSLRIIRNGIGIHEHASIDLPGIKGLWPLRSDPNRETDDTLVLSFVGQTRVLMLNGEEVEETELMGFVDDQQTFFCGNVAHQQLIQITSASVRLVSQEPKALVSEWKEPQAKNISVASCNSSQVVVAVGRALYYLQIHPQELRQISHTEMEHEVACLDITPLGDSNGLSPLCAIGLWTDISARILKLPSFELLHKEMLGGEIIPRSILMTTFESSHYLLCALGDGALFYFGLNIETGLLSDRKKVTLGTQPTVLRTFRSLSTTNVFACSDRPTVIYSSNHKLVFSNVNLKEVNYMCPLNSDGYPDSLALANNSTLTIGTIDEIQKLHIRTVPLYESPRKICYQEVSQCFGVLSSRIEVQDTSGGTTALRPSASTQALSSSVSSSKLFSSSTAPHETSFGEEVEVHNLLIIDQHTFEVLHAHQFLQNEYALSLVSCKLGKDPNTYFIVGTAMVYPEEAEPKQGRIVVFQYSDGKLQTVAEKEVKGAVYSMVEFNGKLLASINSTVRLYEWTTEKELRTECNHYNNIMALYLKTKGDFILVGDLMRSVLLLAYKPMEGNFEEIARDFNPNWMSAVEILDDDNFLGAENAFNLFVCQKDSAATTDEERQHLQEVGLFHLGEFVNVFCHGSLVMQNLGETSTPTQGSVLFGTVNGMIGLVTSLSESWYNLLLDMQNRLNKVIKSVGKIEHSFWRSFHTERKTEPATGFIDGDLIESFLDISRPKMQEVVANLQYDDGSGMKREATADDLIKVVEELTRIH
T2 sequence (Q96SW2 whole entry partner): as the sequence (Q96SW2 whole entry) above
T2 sequence (Q16531 whole entry partner): as the sequence (Q16531 whole entry partner) above
T2 sequence (Q9UKT9 whole entry): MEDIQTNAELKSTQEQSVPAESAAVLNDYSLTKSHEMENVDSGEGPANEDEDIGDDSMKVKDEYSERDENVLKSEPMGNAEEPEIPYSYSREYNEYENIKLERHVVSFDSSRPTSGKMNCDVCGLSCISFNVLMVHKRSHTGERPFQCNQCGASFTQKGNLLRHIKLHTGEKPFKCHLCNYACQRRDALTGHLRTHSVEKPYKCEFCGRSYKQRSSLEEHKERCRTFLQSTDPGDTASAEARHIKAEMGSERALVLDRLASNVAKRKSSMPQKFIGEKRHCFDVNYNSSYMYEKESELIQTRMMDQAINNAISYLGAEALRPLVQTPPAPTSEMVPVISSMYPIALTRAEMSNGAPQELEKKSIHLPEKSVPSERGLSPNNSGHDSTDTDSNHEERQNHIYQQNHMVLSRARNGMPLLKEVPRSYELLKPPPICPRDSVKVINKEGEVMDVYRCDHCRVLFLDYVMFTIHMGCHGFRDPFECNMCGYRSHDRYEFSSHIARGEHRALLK

SMILES | BTK deg Amax % [1] [%] | DC50 [1] [nM] | IKZF3 deg Amax % [2] [%] | DC50 [2] [nM]
COc1ccc(C(=O)N2CCC(OCCN3CCN(Cc4ccc(-c5cc6c(-c7cc(F)cc(NC(=O)N8C[C@H](CC(C)C)[C@@H](O)C8)c7C)ncnc6[nH]5)cc4)CC3)CC2)cc1N1CCC(=O)NC1=O [Compound 2, (3R,4S)—N-(3-(6-(4-((4-(2-((1-(3-(2,4-Dioxotetrahydropyrimidin-1 (2H)-yl)-4-methoxybenzoyl)piperidin-4-yl)oxy)ethyl)piperazin-1-yl)methyl)phenyl)-7H-pyrrolo[2,3-d]pyrimidin-4-yl)-5-fluoro-2-methylphenyl)-3-hydroxy-4-isobutylpyrrolidine-1-carboxamide] | 2 | 1.4 | 101.8 | > 3300
COc1ccc(C(=O)N2CCC(OC3CCN(Cc4ccc(-c5cc6c(-c7cc(F)cc(NC(=O)N8C[C@H](CC(C)C)[C@@H](O)C8)c7C)ncnc6[nH]5)cc4)CC3)CC2)cc1N1CCC(=O)NC1=O [Compound 8, (3R,4S)—N-(3-(6-(4-((4-((1-(3-(2,4-Dioxotetrahydropyrimidin-1(2H)-yl)-4-methoxybenzoyl)piperidin-4-yl)oxy)piperidin-1-yl)methyl)phenyl)-7H-pyrrolo[2,3-d]pyrimidin-4-yl)-5-fluoro-2-methylphenyl)-3-hydroxy-4-isobutylpyrrolidine-1-carboxamide] | 4.5 | 1 | 107.4 | > 1000
COc1ccc(C(=O)N2CCC3(CCN(Cc4ccc(-c5cc6c(-c7cc(F)cc(NC(=O)N8C[C@@H](CC(C)C)[C@H](O)C8)c7C)ncnc6[nH]5)cc4)CC3)CC2)cc1N1CCC(=O)NC1=O [Compound 1, (3S,4R)—N-(3-(6-(4-((9-(3-(2,4-Dioxotetrahydropyrimidin-1(2H)-yl)-4-methoxybenzoyl)-3,9-diazaspiro[5.5]undecan-3-yl)methyl)phenyl)-7H-pyrrolo[2,3-d]pyrimidin-4-yl)-5-fluoro-2-methylphenyl)-3-hydroxy-4-isobutylpyrrolidine-1-carboxamide] | 15 | 164 | 102.7 | > 1100
COc1ccc(C(=O)N2CCC3(CCN(CCc4ccc(-c5cc6c(-c7cc(F)cc(NC(=O)N8C[C@@H](CC(C)C)[C@H](O)C8)c7C)ncnc6[nH]5)cc4)CC3)CC2)cc1N1CCC(=O)NC1=O [Compound 19, (3S,4R)—N-(3-(6-(4-(2-(9-(3-(2,4-dioxotetrahydropyrimidin-1(2H)-yl)-4-methoxybenzoyl)-3,9-diazaspiro[5.5]undecan-3-yl)ethyl)phenyl)-7H-pyrrolo[2,3-d]pyrimidin-4-yl)-5-fluoro-2-methylphenyl)-3-hydroxy-4-isobutylpyrrolidine-1-carboxamide] | 13 | 85.5 | 102.4 | > 1100
COc1ccc(C(=O)N2CCC(CN3CCC(Oc4ccc(-c5cc6c(-c7cc(F)cc(NC(=O)N8C[C@H](CC(C)C)[C@@H](O)C8)c7C)ncnc6[nH]5)cc4)CC3)CC2)cc1N1CCC(=O)NC1=O [Compound 11, (3R,4S)—N-(3-(6-(4-((1-((1-(3-(2,4-Dioxotetrahydropyrimidin-1 (2H)-yl)-4-methoxybenzoyl)piperidin-4-yl)methyl)piperidin-4-yl)oxy)phenyl)-7H-pyrrolo[2,3-d]pyrimidin-4-yl)-5-fluoro-2-methylphenyl)-3-hydroxy-4-isobutylpyrrolidine-1-carboxamide] | 2.3 | 0.6 | 96.7 | > 10000
COc1ccc(C(=O)N2CCC3(CCN(Cc4ccc(-c5cc6c(-c7cc(F)cc(NC(=O)N8C[C@H](CC(C)C)[C@@H](O)C8)c7C)ncnc6[nH]5)cc4)CC3)CC2)cc1N1CCC(=O)NC1=O [Compound 6, (3R,4S)—N-(3-(6-(4-((9-(3-(2,4-Dioxotetrahydropyrimidin-1(2H)-yl)-4-methoxybenzoyl)-3,9-diazaspiro[5.5]undecan-3-yl)methyl)phenyl)-7H-pyrrolo[2,3-d]pyrimidin-4-yl)-5-fluoro-2-methylphenyl)-3-hydroxy-4-isobutylpyrrolidine-1-carboxamide] | 6.2 | 3.4 | 93.5 | > 3300
COc1ccc(C(=O)N2CCC(CCN3CCC(OCc4ccc(-c5cc6c(-c7cc(F)cc(NC(=O)N8C[C@H](CC(C)C)[C@@H](O)C8)c7C)ncnc6[nH]5)cc4)CC3)CC2)cc1N1CCC(=O)NC1=O [Compound 22, (3R,4S)—N-(3-(6-(4-(((1-(2-(1-(3-(2,4-Dioxotetrahydropyrimidin-1 (2H)-yl)-4-methoxybenzoyl)piperidin-4-yl)ethyl)piperidin-4-yl)oxy)methyl)phenyl)-7H-pyrrolo[2,3-d]pyrimidin-4-yl)-5-fluoro-2-methylphenyl)-3-hydroxy-4-isobutylpyrrolidine-1-carboxamide] | 1.4 | 1.4 | 100.2 | > 1100
COc1ccc(C(=O)N2CCC(CN3CCN(Cc4ccc(-c5cc6c(-c7cc(F)cc(NC(=O)N8C[C@H](CC(C)C)[C@@H](O)C8)c7C)ncnc6[nH]5)cc4)CC3)CC2)cc1N1CCC(=O)NC1=O [Compound 12, (3R,4S)—N-(3-(6-(4-((4-((1-(3-(2,4-Dioxotetrahydropyrimidin-1(2H)-yl)-4-methoxybenzoyl)piperidin-4-yl)methyl)piperazin-1-yl)methyl)phenyl)-7H-pyrrolo[2,3-d]pyrimidin-4-yl)-5-fluoro-2-methylphenyl)-3-hydroxy-4-isobutylpyrrolidine-1-carboxamide] | 4.3 | 0.7 | 104.0 | > 1100
COc1ccc(C(=O)N2CCC3(CCN(Cc4ccc(-c5cc6c(-c7cc(F)cc(NC(=O)N8C[C@@H](CC(C)C)[C@H](O)C8)c7C)ncnc6[nH]5)cc4)CC3)CC2)cc1N1CCC(=O)NC1=O (racemic) [Compound 5, trans-rac-N-(3-(6-(4-((9-(3-(2,4-Dioxotetrahydropyrimidin-1(2H)-yl)-4-methoxybenzoyl)-3,9-diazaspiro[5.5]undecan-3-yl)methyl)phenyl)-7H-pyrrolo[2,3-d]pyrimidin-4-yl)-5-fluoro-2-methylphenyl)-3-hydroxy-4-isobutylpyrrolidine-1-carboxamide] | 4 | 4.9 | 103.7 | > 3300
COc1ccc(C(=O)N2CCC3(CCN(CCc4ccc(-c5cc6c(-c7cc(F)cc(NC(=O)N8C[C@H](CC(C)C)[C@@H](O)C8)c7C)ncnc6[nH]5)cc4)CC3)CC2)cc1N1CCC(=O)NC1=O [Compound 15, (3R,4S)—N-(3-(6-(4-(2-(9-(3-(2,4-Dioxotetrahydropyrimidin-1(2H)-yl)-4-methoxybenzoyl)-3,9-diazaspiro[5.5]undecan-3-yl)ethyl)phenyl)-7H-pyrrolo[2,3-d]pyrimidin-4-yl)-5-fluoro-2-methylphenyl)-3-hydroxy-4-isobutylpyrrolidine-1-carboxamide] | 4 | 1.8 | 100.2 | > 5500
